The values that follow come from patent publication US20130184223A1, “METHODS AND COMPOSITIONS RELATED TO MODULATING AUTOPHAGY” (UNIVERSITY OF ROCHESTER, priority 2010, published 2013).

Like-named read-outs stand apart in the source and are kept apart here.

In experiment [1] the test system is mp53/Ras transformed cells and CAPAN-2 cells. Briefly: Immunocompromised mouse tumorigenicity assay, cells expressing autophagy modulators. It is filed as in vivo. The settings on record: cells expressing the protein or shRNA vs vector control; 5×10^5 cells per injection; 4 weeks mp53/Ras, 5 weeks CAPAN-2. The protocol:
To determine whether cooperative up-regulation of autophagy is required for tumorigenesis Atg12, a gene involved in autophagosome formation, was knocked-down using two independent constructs in mp53/RasV12 and Capan-2 cells. In addition, a genetic rescue experiment was performed by introducing a shRNA resistant form of ATG12 into these cell backgrounds to test for ATG12 specificity of the observed effects. Tumor formation was inhibited by Atg12 KD in both mp53/Ras and CAPAN-2 cell lines and was rescued by expression of the exogenous shRNA resistant Atg12 (FIG. 4.5a, 4.5c).
Cells were cultured on 15 cm dishes for two days without selective antibiotics at 39 C for mp53/Ras cells and at 37 C for HT-29, CAPAN-2, PANC-1, and 5 Panc10.05. Cells were plated at the following densities: mp53/Ras—7.5×10^5, HT-29 —1.5×10^6, CAPAN-2 —4×10^6, PANC—4×10^6, and PANC 10.05—2×10^6. Cells were trypsinized, counted and re-suspended in RPMI medium lacking supplements for mp53/Ras, CAPAN-2, and Panc10.05, and DMEM lacking supplements for HT-29 and PANC-1 at a density of 5×10^5/100 ul for mp53/Ras and CAPAN-2 cells, 1.25×10^5/100 ul for HT-29 cells, 5×10^6/100 ul for PANC-1, 2×10^6/100 ul for Panc10.05. […] Tumor volume was measured every week for 4 weeks for mp53/Ras and HT-29 cells, 5 weeks for CAPAN-2 cells, and 6 weeks for PANC-1.

Experiment [2] shares this test system. In words: Immunoblot of p62 and LC3 in cells expressing autophagy modulators. The format is cell-based. The settings on record: cells expressing the protein vs vector control. An excerpt:
Thus, the effects of Plac8 KD on both tumor formation and autophagy can be suppressed by constitutive activation of Rab7.
Moreover, the molecular machinery employed in autophagosomal/lysosomal fusion, such as Rab7, is required for endosomal/lysosomal fusion, which is also required for tumor formation in some cancers.
To determine if the Plac8 KD-induced loss of tumor formation is specifically due to a loss of autophagy completion, Atg12, a gene required for autophagosomal formation, was overexpressed in Plac8 KD cells.
YAMC, vector, mp53, Ras, and mp53/Ras cells were cultured for two days at 39 C in RPMI with 10% FBS medium and gentamicin in collagen-I coated 15 cm dishes. HT-29, CAPAN-2, PANC-1 and Panc 10.05 cells were cultured for two days at 37 C in maintenance media without selective antibiotics on 15 cm dishes. […] Protein concentration was quantified using Bradford reagent (BioRad) and a Genesys 1 0UV spectrophotometer (Spectronic Unicam). […]

Experiment [3] has as its system mp53/Ras transformed cells. In words: Lamp2/GFP-LC3 colocalization (autophagosomal/lysosomal fusion), mp53/Ras cells. Particulars: nutrient starved in HBSS 15 minutes. The format is cell-based, murine. An excerpt: The Plac8 KD dependent accumulation of autophagosomes and autophagosomal biochemical markers can be due to an induction of autophagosome formation (on-rate) or inhibition in autophagosome clearance via autophagosomal/lysosomal fusion (off-rate). […] To explore if Plac8 is required for autophagosomal/lysosmal fusion a GFP-LC3 fusion protein was expressed to label autophagosomes and immunostained for Lamp2, a lysosomal marker. Co-localization of GFP-LC3 and Lamp2 indicates the formation of an autolysosome, or the completion of autophagosomal/lysosomal fusion.
Cells were plated onto collagen-1 coated 22 mm glass coverslips (BD Biosciences) in 6 well plates at 5×10^4 cells per well. […] Cells were analyzed and imaged using a Leica inverted confocal microscope (Lieca).
GFP-LC3 expressing cells were fixed, stained, mounted, and imaged by the methods described in previous section titled Immunofluorescent staining of cells. To quantify GFP-LC3 punctae images were analyzed using the ImageJ plug-in Watershed Segmentation. […] The resulting image was quantified by measuring the mean green and blue signals per image and dividing the blue signal by the total green signal to get the amount of punctae per total GFP-LC3 expressed in the cell. […] To quantify GFP-LC3 colocalization images were analyzed using the ImageJ plug-in Colocalization Finder. […]

Experiment [4] relates to YAMC, mp53, Ras and mp53/Ras transformed cells. Briefly: Immunoblot of autophagy markers p62 and LC3 after drug treatment. It is filed as cell-based, murine. The settings on record: 10 mM 3-methyladenine (3MA) for 24 hrs.
Description: To identify if the p62 degradation and LC3 conversion is specifically due to autophagy YAMC, mp53, Ras, and mp53/Ras cells were treated with 3-methyladenine, a specific pharmacologic inhibitor of autophagosome formation (FIG. 4.3).
YAMC, vector, mp53, Ras, and mp53/Ras cells were cultured for two days at 39 C in RPMI with 10% FBS medium and gentamicin in collagen-I coated 15 cm dishes. […] Protein concentration was quantified using Bradford reagent (BioRad) and a Genesys 1 0UV spectrophotometer (Spectronic Unicam). […] Proteins were detected with primary antibodies at the following dilutions in PBST with 5% milk at 4 C overnight: HA-tagged Plac8 —1:1000 dilution of HA antibody (Roche), —Tubulin—1:1000 of—Tubulin antibody (Santa Cruz), Plac8 —1:500 of Plac8 antibody (PRF&L, Inc.), Lamp2 —1:5000 of Lamp2 antibody (Abcam), Rab7 —1:1000 Rab7 antibody (Sigma), LC3 —1:2000 of LC3B antibody (Sigma), RhoA—1:1000 RhoA antibody (Santa Cruz), Cathepsin D—1:1000 Cathepsin D antibody (Santa Cruz), p62 —1:5000 of p62 antibody (PROGEN), 3× Flag-tagged proteins—1:1000 dilution of 3× Flag antibody and 1:2500 of HRP-conjugated 3× Flag antibody (Sigma), Rab5a—1:1000 dilution of Rab5 antibody (Abcam), phosphop70S6K (Thr389)—1:1000 dilution of phospho-p70S6K (Thr389) antibody (Cell Signaling), p70S6K—1:1000 dilution of p70S6K antibody (Cell Signaling), Atg12—1:250 Atg12 antibody (Sigma). […]
Experiment [5] deals with lymphoma, colon cancer, lung cancer, and pancreatic cancer cells. The settings on record: prior studies referred to in the text, cited from earlier work.

Regarding “Rab7 DA: 3× Flag-tagged Rab7 Q67L dominant active mutant, activates autophagosomal/lysosomal fusion”, the “tumor formation in nude mice” value in experiment [1] is “inhibits tumor formation”.

“Rab7 DN: 3× Flag-tagged Rab7 T22N dominant negative mutant, inhibits autophagosomal/lysosomal fusion”: the “tumor formation in nude mice” value in experiment [1] is “inhibition of tumor formation”. Further, the “p62 and LC3 protein levels” value in experiment [2] is “accumulation of p62 and LC3”. For the same compound, the “inhibition of GFP-LC3/Lamp2 colocalization” value in experiment [3] is recorded as 74%.

In the case of `Cn1cnc(N)c2ncnc1-2` [3-methyladenine], the “p62 and LC3 protein levels” value was “p62 and LC3-I increase” in experiment [4]; “Accumulation of p62 and LC3” in experiment [4] (listed as 3MA).

For `CO/C1=C\C(C)=C\[C@@H](C)[C@@H](O)[C@@H](C)C/C(C)=C/C=C/[C@H](OC)[C@@H]([C@@H](C)[C@@H](O)[C@H](C)[C@@]2(O)C[C@@H](O)[C@H](C)[C@@H](C(C)C)O2)OC1=O` [Bafilomycin A1], the “tumor formation / tumor growth” value is on record as “inhibits tumor growth” in experiment [5], “tumor inhibitory” in experiment [5] (listed as bafilomycin A1) and “effective at inhibiting tumor formation” in experiment [5] (listed as baflomycin A1).
